The values below come from the supplement of paper PMC11061612.

Experiment in all cases: Bliss excess, mean over the matrix (fraction); higher = more synergy
The subject of one assay is A172 (Glioblastoma). In outline: (§1)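 Bliss excess equals the observed combination effect minus the expected value EA + EB − EA·EB, where EA and EB are the effects of each agent alone. Combination Emax is the second-highest inhibition within the matrix. Inhibition was scaled from CellTiter-Glo 2.0 luminescence, with 0 set by vehicle wells and 1 by blank wells, after 72 hours of two-drug dosing of cells plated in 1536-well plates.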

The subject of assay [1] is BICR78 (Oral Cavity Carcinoma). In outline: as §1
Assay [2] concerns CAL-39 (Other Solid Carcinomas). In outline: as §1
Assay [3] concerns DOK (Oral Cavity Carcinoma). In outline:
as §1

Assay [4] relates to EFM-192A (Breast Carcinoma). In outline:
as §1

In assay [5] the test system is ETK-1 (Biliary Tract Carcinoma). In outline: as §1
The subject of another assay is EW-22 (Ewing's Sarcoma). In outline:
as §1

For assay [6], the system named is GDM-1 (Acute Myeloid Leukemia). In outline:
as §1

The test system of assay [7] is HCT-116 (Colorectal Carcinoma). In outline:
as §1

For assay [8], the system named is HOP-92 (Non-Small Cell Lung Carcinoma). In outline: as §1
Assay [9] concerns JHH-6 (Hepatocellular Carcinoma). In outline:
as §1

Assay [10] has as its system MEG-01 (Chronic Myelogenous Leukemia). In outline:
as §1

The subject of assay [11] is PA-TU-8902 (Pancreatic Carcinoma). In outline:
as §1

The next assay concerns SK-MEL-1 (Melanoma). In outline: as §1
Assay [12] relates to SK-UT-1 (Other Solid Carcinomas). In outline:
as §1

Assay [13] concerns SLVL (B-Cell Non-Hodgkin's Lymphoma). In outline: as §1
The test system of assay [14] is U-118-MG (Low Grade Glioma). In outline:
as §1

The test system of assay [15] is WSU-DLCL2 (B-Cell Non-Hodgkin's Lymphoma). In outline: as §1
Assay [16] deals with YT (Other Blood Carcinomas). In outline:
as §1

Structures are written as SMILES.

Take `NC1(C(=O)N[C@@H](CCO)c2ccc(Cl)cc2)CCN(c2ncnc3[nH]ccc23)CC1` [Capivasertib] + Cn1cnc2c(F)c(Nc3ccc(Br)cc3Cl)c(C(=O)NOCCO)cc21 [Selumetinib] (first compound max 10 µM, 7x7, partner max 10 µM): the Bliss excess in the assay with A172 (Glioblastoma) was -0.008; in assay [1], -0.0016; in [2], -0.019; in [3] it was 0.0518; in assay [4], -0.0326; in assay [5] it was 0.0555. In addition, the Bliss excess in the assay with EW-22 (Ewing's Sarcoma) is -0.0255; in assay [6] it was 0.072; in [7] it was 0.0512; in assay [8], 0.003; in [9], -0.0262; in assay [10], 0.0548. Besides, the Bliss excess in assay [11] was 0.0181; with SK-MEL-1 (Melanoma), 0.0465; in [12], 0.0843; in [13] it was -0.0251; in assay [14], 0.0071; in [15] it was -0.0006. Moreover, in [16], the Bliss excess was -0.0041.
Consider `Cc1nc(Nc2ncc(C(=O)Nc3c(C)cccc3Cl)s2)cc(N2CCN(CCO)CC2)n1` [Dasatinib] + CC(=O)Nc1cccc(-n2c(=O)n(C3CC3)c(=O)c3c(Nc4ccc(I)cc4F)n(C)c(=O)c(C)c32)c1 [Trametinib] (first compound max 2 µM, 7x7, partner max 1 µM), for which the Bliss excess is -0.0823 in the assay on A172 (Glioblastoma); -0.0401 in assay [1]; 0.0171 in assay [2]; 0.0288 in [3]; -0.0545 in [4]; 0.0226 in [5]. In addition, the Bliss excess in the assay on EW-22 (Ewing's Sarcoma) is -0.0457; in assay [6], -0.102; in assay [7], 0.0991; in assay [8] it was 0.113; in assay [9], 0.0847; in assay [10] it was 0.0019. The Bliss excess in [11] is 0.0404; in the assay on SK-MEL-1 (Melanoma) it was -0.0852; in assay [12] it was -0.0255; in assay [13], -0.147; in [14] it was -0.0736; in assay [15] it was 0.101. Moreover, the Bliss excess in assay [16] is -0.0521.
Turning to `COc1cc2ncnc(Nc3ccc(F)c(Cl)c3)c2cc1OCCCN1CCOCC1` [Gefitinib] + CC(C)n1c(=O)n(C)c2cnc3cc(F)c(-c4ccc(OCCCN5CCCCC5)nc4)cc3c21 [AZD1390] (first compound max 10 µM, 7x7, partner max 0.3 µM), the Bliss excess is -0.0554 with A172 (Glioblastoma); -0.0788 in assay [1]; -0.0004 in assay [2]; -0.0341 in [3]; -0.0752 in [4]; -0.11 in assay [5]. Further, the Bliss excess was -0.0252 in the assay with EW-22 (Ewing's Sarcoma); -0.0833 in assay [6]; -0.0453 in assay [7]; -0.0439 in [8]; -0.0603 in [9]; -0.058 in [10]. Besides, the Bliss excess in assay [11] was -0.0693; in the assay with SK-MEL-1 (Melanoma), 0.0081; in assay [12], -0.0319; in [13] it was -0.0591; in assay [14], -0.0498; in assay [15] it was 0.0143. Also, the Bliss excess in assay [16] is -0.0513.
Regarding `CS(=O)(=O)CCNCc1ccc(-c2ccc3ncnc(Nc4ccc(OCc5cccc(F)c5)c(Cl)c4)c3c2)o1` [Lapatinib] + C[C@@H](Oc1cc(-c2cnn(C3CCNCC3)c2)cnc1N)c1c(Cl)ccc(F)c1Cl [Crizotinib] (first compound max 10 µM, 7x7, partner max 10 µM), the Bliss excess with A172 (Glioblastoma) is -0.0564; in assay [1] it was 0.0073; in assay [2], 0.026; in assay [3], -0.0302; in assay [4] it was 0.0063; in assay [5], -0.0596. Also, the Bliss excess in the assay on EW-22 (Ewing's Sarcoma) was -0.0241; in assay [6] it was -0.0027; in assay [7] it was -0.0748; in assay [8], -0.0051; in [9], -0.0262; in assay [10], -0.0083. Besides, the Bliss excess in assay [11] was 0.0068; in the assay on SK-MEL-1 (Melanoma) it was -0.0827; in assay [12], -0.0392; in [13] it was -0.0518; in [14], -0.0194; in [15] it was -0.0162. In addition, in [16], the Bliss excess is -0.081.
On to `CC(=O)c1c(C)c2cnc(Nc3ccc(N4CCNCC4)cn3)nc2n(C2CCCC2)c1=O` [Palbociclib] + CC1(C)CCC(CN2CCN(c3ccc(C(=O)NS(=O)(=O)c4ccc(NCC5CCOCC5)c([N+](=O)[O-])c4)c(Oc4cnc5[nH]ccc5c4)c3)CC2)=C(c2ccc(Cl)cc2)C1 [Venetoclax] (first compound max 10 µM, 7x7, partner max 1 µM), for which the Bliss excess was -0.003 in the assay with A172 (Glioblastoma); -0.0611 in assay [1]; -0.0566 in assay [2]; -0.0542 in assay [3]; -0.0115 in assay [4]; -0.0207 in [5]. Moreover, the Bliss excess in the assay with EW-22 (Ewing's Sarcoma) was 0.0129; in assay [6], 0.0557; in assay [7], -0.0285; in [8], -0.0166; in assay [9], -0.0461; in assay [10] it was -0.0096. For the same molecule, the Bliss excess in assay [11] is -0.029; in the assay with SK-MEL-1 (Melanoma), -0.0353; in [12] it was -0.0343; in assay [13], -0.0892; in [14], 0.0308; in assay [15], 0.0277. In addition, the Bliss excess in assay [16] was -0.13.
On to `CC(=O)c1c(C)c2cnc(Nc3ccc(N4CCNCC4)cn3)nc2n(C2CCCC2)c1=O` [Palbociclib] + Cc1c2c(nn1C)CSCc1cc(n(C)n1)CSc1cc(c3ccccc3c1)OCCCc1c(C(=O)O)n(C)c3c-2c(Cl)ccc13 [AZD5991] (first compound max 10 µM, 7x7, partner max 1 µM), for which the Bliss excess with A172 (Glioblastoma) is -0.0589; in assay [1], -0.0375; in assay [2], 0.0054; in [3] it was -0.0363; in assay [4], -0.119; in assay [5], -0.0808. Moreover, the Bliss excess in the assay with EW-22 (Ewing's Sarcoma) was 0.0039; in assay [6], 0.0919; in [7] it was -0.0075; in [8], 0.013; in [9], -0.0212; in [10], 0.0338. Also, the Bliss excess in assay [11] was -0.0469; in the assay with SK-MEL-1 (Melanoma) it was -0.0014; in assay [12], 0.0096; in assay [13], -0.0393; in assay [14], -0.0201; in assay [15] it was -0.0052. In addition, the Bliss excess in assay [16] was 0.0006.
On to `CC(=O)c1c(C)c2cnc(Nc3ccc(N4CCNCC4)cn3)nc2n(C2CCCC2)c1=O` [Palbociclib] + Cn1cnc2c(F)c(Nc3ccc(Br)cc3Cl)c(C(=O)NOCCO)cc21 [Selumetinib] (first compound max 10 µM, 7x7, partner max 10 µM), for which the Bliss excess was 0.0031 in the assay with A172 (Glioblastoma); 0.0133 in assay [1]; 0.151 in [2]; 0.0057 in assay [3]; -0.0289 in assay [4]; -0.0351 in [5]. Besides, the Bliss excess was -0.0158 with EW-22 (Ewing's Sarcoma); 0.0343 in [6]; 0.0697 in assay [7]; 0.0142 in assay [8]; 0.0291 in assay [9]; 0.0404 in assay [10]. In addition, the Bliss excess is 0.0639 in assay [11]; -0.0559 in the assay on SK-MEL-1 (Melanoma); -0.033 in assay [12]; -0.0355 in [13]; -0.0114 in [14]; -0.0194 in assay [15]. The Bliss excess in assay [16] is -0.0471.
